Experimental data as given in patent US20060257481A1, “Sustained release formulation and dosing schedule of leukotriene synthesis inhibitor for human therapy” (deCODE Genetics ehf., priority 2005, published 2006).
Values joined by “and” are separate entries in the source; they are usually repeats but may differ in a detail not shown here. Identical values can stand only once. Like-named read-outs stand apart in the source and are kept apart here.

Key:
CRP = experiment: Study DG-031-201 cross-over trial: Hs-CRP in serum; format: in vivo, human; conditions: for CRP: Study 201, 2-6 wks
Protocol: (§1) Patients who met the study eligebility criteria were enrolled and randomized into 3 different dose-level groups: (1) 64 patients on 250 mg/day therapy with DG-031 (250 mg q.d.), vs placebo; (2) 64 patients on 500 mg/day therapy with DG-031 (250 mg b.i.d.) vs placebo; and (3) 63 patients on 750 mg/day therapy with DG-031 (250 mg t.i.d.) vs placebo. […] All patients received 3 tablets per day. Treatment periods, 4 weeks in duration each, were separated by a 2-week washout period. The placebo tablets were identical in shape, color, form and taste to the active tablets except that they contained no active drug ingredients. Treatment with DG-031 or placebo was in addition to the subject's standard care, including all medications and treatment plan as prescribed by the subject's cardiologist prior to enrolment. A total of 191 subjects were enrolled, with 172 completing all 8 visits or 8 patients short of the target of 180 patients.
The primary objective was to determine whether the FLAP inhibitor has a statistically significant effect, compared to placebo, on one or more biomarkers of MI risk, including: (1) ionomycin-induced LTB4 and MPO release by neutrophils ex vivo; (2) MPO, CRP, N-tyrosine, Lp-PLA2 or amyloid A in serum, or (3) LTE4 in urine. The secondary objective was to determine whether the effect of DG-031 was dose-dependent. The tertiary objective was to assess other biomarkers (See Results). Evaluation of safety and tolerability of the drug was also a primary endpoint.
All data were analyzed according to a pre-established statistical analysis plan (SAP) and by intention-to-treat (ITT). Each arm of the study, as well as pooled sets (combining dose levels), was considered for the primary analysis. Each such set is an AB/BA cross-over design and in the primary analysis of efficacy, the levels of biomarkers of MI risk at the end of the treatment periods (visits 4 and 7) were used as primary response variables. The difference between DG-031 and placebo treatment was the primary outcome, assessed separately for each of the biomarkers. Treatment effect was tested using a two-sample t-test on the period differences for suitably transformed response variables, under an assumption of normality of the transformed data. We report treatment effect as one half of the observed mean differences in the two-sample t-test, with a 95% CI. No pre-tests for carry-over effect were performed as a part of the primary analysis. Tests for carry-over were done and are reported separately from results of primary analysis. All hypotheses were tested at a two-sided nominal significance level of 0.05 and p-values based on t-tests are reported. In addition, for the primary efficacy endpoints where the effects of the two highest doses on 10 primary variables were studied, a randomization test was performed which corrects for multiple testing and ensures that the key results are not affected by distributional concerns. In particular, 1 million permutations of the patients into the different study tracks were performed, generating a reference distribution for the maximum of the 10 t-statistics of the biomarkers under the null hypothesis of no drug effect. By comparing the observed t-statistic of each of the 10 biomarkers to this reference distribution, empirical p-values were computed. […]

Lp-PLA2 = experiment: Study DG-031-201 cross-over trial: Lp-PLA2; format: in vivo, human; conditions: highest dose; [3%,16%], p=0.006
Protocol: as §1, with “patients. […]” for “patients.”
All data were analyzed according to a pre-established statistical analysis plan (SAP) and by intention-to-treat (ITT). […] The difference between DG-031 and placebo treatment was the primary outcome, assessed separately for each of the biomarkers. […]

[1] = test system: LTB4 production in human whole blood; experiment: In vitro LTB4 production in human whole blood after ionomycin stimulation; format: cell-based
Protocol: Neutrophils and other cells in human whole blood respond in vitro to activation by a calcium ionophore (e.g., ionomycin), with an increase in LTB4 production and with coupled release of MPO stimulated in part by LTB4 production in the assay. The effect of DG-031 on the capacity for production of LTB4 in vitro after ionomycin stimulation was evaluated at concentrations ranging from 0.1 μM up to 240 μM.

[2] = healthy volunteers, cited from earlier work
[3] = cited from earlier work; for Safety and tolerability: asthma patients
clinical = conditions: human, in vivo
Protocol: Measurements of plasma DG-031 can be carried out by methods that are standard in the art. […] The DG-031 is then measured by liquid chromatography and/or mass spectrometry and the measured concentration is compared to a standard curve.
After completion of the double-blind study reported herein an open-label randomized study was conducted in an independent cohort but with same eligibility criteria and measuring several of the same biomarkers. […] Each patient was on drug for 8 days; there was no placebo group. The primary objective of this study was to determine pharmacokinetic parameters of DG-031 in three different doses, as well as to assess the pharmacokinetic/pharmacodynamic relationship between DG-031, LTB4 and MPO.
The additional phase II study was conducted to compare a 750 mg total daily dose administered in a BID or TID dosing regimen.

O=C(O)[C@@H](c1ccc(OCc2ccc3ccccc3n2)cc1)C1CCCC1 [DG-031, (R)-(+)-alpha-cyclopentyl-4-(2-quinolinylmethoxy)-Benzeneacetic acid]
Reduction in CRP (CRP; 250 mg BID and TID, end of wash-out period (week 6), p=0.02): 25% | CRP (CRP; 250 mg BID, p = 0.016): −24% | CRP (CRP; 250 mg QD, NS): −6% | Persistence of CRP reduction after week 6 (CRP; after end of wash-out period): 4 weeks | Reduction of CRP (CRP; higher two dose groups (250 mg BID and 250 mg TID), at 2 weeks, p=0.07, not significant): 16% | Increase of Lp-PLA2 (Lp-PLA2): 9% | Expected reduction of capacity for LTB4 production at peak concentration ([1]; 250 mg TID peak, assuming ex vivo parallels in vitro response): about 65% | Expected reduction of capacity for LTB4 production at Cmin ([1]; 250 mg TID, concentrations above 2-3 μg/ml, assuming ex vivo parallels in vitro response): ≥ 30% | IC50 ([1]; human whole blood, ionomycin stimulation, read-out: in vitro IC50, capacity for LTB4 production): ~3 µM and ~1.1 µg/mL | Safety and tolerability ([2]; total daily dose 100, 200, 250, 300, 500, 750 and 1000 mg, less than 14 days): safe and well tolerated | Safety and tolerability ([2]; total daily doses 500 mg and 1000 mg, 14-42 days): safe and well tolerated | Tolerability ([3]; 750 mg/day, previous phase I-II human studies in asthma): well tolerated | Safety and tolerability ([3]; total daily dose 500 mg, greater than 45-365 days): safe and well tolerated | Safety and tolerability ([3]; total daily dose 250, 500, 750 and 1000 mg, 14 days): safe and well tolerated | Safety and tolerability ([3]; total daily doses 100, 200, 250, 500 and 1000 mg, 14-42 days): safe and well tolerated | half-life (clinical; Dominant half-life, humans): 2.5 to 3 h | half-life (clinical; Slower half-life, fraction of the dose with slower elimination): 10 to 15 h
